For 6 cell lines, relative viability results are on record in the supplement of paper PMC10307832.

What all share (assay): relative viability (nuclei count vs DMSO), 5 days (fraction); higher = more cells survive
Compound in experiment [1]: C[C@]12O[C@H](C[C@]1(O)CO)n1c3ccccc3c3c4c(c5c6ccccc6n2c5c31)CNC4=O [Lestaurtinib] + Cc1cc(Nc2cc(N3CCN(C)CC3)nc(Sc3ccc(NC(=O)C4CC4)cc3)n2)n[nH]1 [Tozasertib] (partner 0.1 µM)
The gist of the method: (§1)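 Relative viability was taken as the ratio of nuclei in treated wells to nuclei in vehicle wells. Lung cancer cell lines in 1536-well plates received compounds by pin tool one day after seeding, either one drug alone or a fixed anchor-drug dose plus five library-drug doses (not always all listed) in √10 steps. Nuclei were counted on 4× images after 5 days of treatment, and values are medians of duplicate plates.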

Compound in experiment [2]: C[C@]12O[C@H](C[C@]1(O)CO)n1c3ccccc3c3c4c(c5c6ccccc6n2c5c31)CNC4=O [Lestaurtinib] + C[C@]1(O)C[C@@H](c2nc(-c3ccc4ccc(-c5ccccc5)nc4c3)c3c(N)nccn32)C1 [Linsitinib] (partner 1 µM)
The gist of the method:
as §1

Compound in experiment [3]: C1/C(=C\C2=CC=CS2)/C(=O)/C(=C/C3=CC=CS3)/C1 + C[C@]1(O)C[C@@H](c2nc(-c3ccc4ccc(-c5ccccc5)nc4c3)c3c(N)nccn32)C1 [Linsitinib] (partner 1 µM)
The gist of the method:
as §1

Compound in experiment [4]: C1/C(=C\C2=CC=CS2)/C(=O)/C(=C/C3=CC=CS3)/C1 + COc1cc2c(Oc3ccc(NC(=O)C4(C(=O)Nc5ccc(F)cc5)CC4)cc3F)ccnc2cc1OCCCN1CCOCC1 [Foretinib] (partner 0.25 µM)
The gist of the method:
as §1

As to NCI-H1395, the relative viability was 0.773 in experiment [1] (first compound 0.005 µM); 0.791 in experiment [1] (first compound 0.01581 µM); 0.64 in experiment [1] (first compound 0.05 µM); 0.721 in experiment [1] (first compound 0.1581 µM); 0.46 in experiment [1] (first compound 0.5 µM); 1.07 in experiment [2] (first compound 0.005 µM). For the same cell line, the relative viability in experiment [2] (first compound 0.01581 µM) worked out at 1.2; in experiment [2] (first compound 0.05 µM) it was 0.836; in experiment [2] (first compound 0.1581 µM) it was 0.894; in experiment [2] (first compound 0.5 µM), 0.421; in experiment [3] (first compound 0.2 µM), 1.12; in experiment [3] (first compound 0.6325 µM), 1.06. Moreover, the relative viability in experiment [3] (first compound 2 µM) came to 1.29; in experiment [3] (first compound 6.325 µM), 0.89; in experiment [3] (first compound 20 µM), 1.05; in experiment [4] (first compound 0.2 µM) it was 0.992; in experiment [4] (first compound 0.6325 µM), 0.945; in experiment [4] (first compound 2 µM), 1.18. The relative viability in experiment [4] (first compound 6.325 µM) worked out at 0.861; in experiment [4] (first compound 20 µM), 1.01.
Consider NCI-H1437, for which the relative viability in experiment [1] (first compound 0.005 µM) worked out at 0.451; in experiment [1] (first compound 0.01581 µM) it was 0.438; in experiment [1] (first compound 0.05 µM), 0.373; in experiment [1] (first compound 0.1581 µM), 0.309; in experiment [1] (first compound 0.5 µM) it was 0.408; in experiment [2] (first compound 0.005 µM), 1.02. Besides, the relative viability worked out at 1.24 in experiment [2] (first compound 0.01581 µM); 0.739 in experiment [2] (first compound 0.05 µM); 0.775 in experiment [2] (first compound 0.1581 µM); 0.302 in experiment [2] (first compound 0.5 µM); 1.1 in experiment [3] (first compound 0.2 µM); 1.04 in experiment [3] (first compound 0.6325 µM). For the same cell line, the relative viability in experiment [3] (first compound 2 µM) amounted to 0.993; in experiment [3] (first compound 6.325 µM), 0.984; in experiment [3] (first compound 20 µM), 0.986; in experiment [4] (first compound 0.2 µM), 1.31; in experiment [4] (first compound 0.6325 µM) it was 1.3; in experiment [4] (first compound 2 µM) it was 1.25. The relative viability in experiment [4] (first compound 6.325 µM) was determined as 1.1; in experiment [4] (first compound 20 µM), 1.23.
NCI-H1651: the relative viability in experiment [1] (first compound 0.005 µM) is 0.706; in experiment [1] (first compound 0.01581 µM), 0.756; in experiment [1] (first compound 0.05 µM), 0.771; in experiment [1] (first compound 0.1581 µM), 0.694; in experiment [1] (first compound 0.5 µM), 0.492; in experiment [2] (first compound 0.005 µM), 0.985. For the same cell line, the relative viability was 1.06 in experiment [2] (first compound 0.01581 µM); 0.969 in experiment [2] (first compound 0.05 µM); 0.695 in experiment [2] (first compound 0.1581 µM); 0.438 in experiment [2] (first compound 0.5 µM); 1.11 in experiment [3] (first compound 0.2 µM); 1.06 in experiment [3] (first compound 0.6325 µM). Also, the relative viability amounted to 0.92 in experiment [3] (first compound 2 µM); 1.05 in experiment [3] (first compound 20 µM); 0.797 in experiment [4] (first compound 0.2 µM); 0.815 in experiment [4] (first compound 0.6325 µM); 0.785 in experiment [4] (first compound 2 µM); 0.671 in experiment [4] (first compound 6.325 µM). The relative viability in experiment [4] (first compound 20 µM) came to 0.692.
As to NCI-H1666, the relative viability in experiment [1] (first compound 0.005 µM) came to 0.656; in experiment [1] (first compound 0.01581 µM), 0.663; in experiment [1] (first compound 0.05 µM) it was 0.686; in experiment [1] (first compound 0.1581 µM) it was 0.531; in experiment [1] (first compound 0.5 µM) it was 0.373; in experiment [2] (first compound 0.005 µM) it was 0.926. Also, the relative viability in experiment [2] (first compound 0.01581 µM) is 1.04; in experiment [2] (first compound 0.05 µM) it was 0.847; in experiment [2] (first compound 0.1581 µM) it was 0.475; in experiment [2] (first compound 0.5 µM), 0.501; in experiment [3] (first compound 0.2 µM), 0.828; in experiment [3] (first compound 0.6325 µM), 0.762. Also, the relative viability was found to be 0.776 in experiment [3] (first compound 2 µM); 0.481 in experiment [3] (first compound 6.325 µM); 0.825 in experiment [3] (first compound 20 µM); 0.99 in experiment [4] (first compound 0.2 µM); 1.01 in experiment [4] (first compound 0.6325 µM); 0.965 in experiment [4] (first compound 2 µM). The relative viability in experiment [4] (first compound 6.325 µM) is 0.865; in experiment [4] (first compound 20 µM) it was 0.958.
On to NCI-H1734, for which the relative viability is 0.289 in experiment [1] (first compound 0.005 µM); 0.153 in experiment [1] (first compound 0.01581 µM); 0.247 in experiment [1] (first compound 0.05 µM); 0.214 in experiment [1] (first compound 0.1581 µM); 0.178 in experiment [1] (first compound 0.5 µM); 0.95 in experiment [2] (first compound 0.005 µM). For the same cell line, the relative viability in experiment [2] (first compound 0.01581 µM) was 0.849; in experiment [2] (first compound 0.05 µM), 0.477; in experiment [2] (first compound 0.1581 µM) it was 0.545; in experiment [2] (first compound 0.5 µM) it was 0.342; in experiment [3] (first compound 0.2 µM) it was 0.902; in experiment [3] (first compound 0.6325 µM) it was 0.931. Moreover, the relative viability came out at 0.947 in experiment [3] (first compound 2 µM); 0.782 in experiment [3] (first compound 6.325 µM); 0.875 in experiment [3] (first compound 20 µM); 0.805 in experiment [4] (first compound 0.2 µM); 0.939 in experiment [4] (first compound 0.6325 µM); 0.92 in experiment [4] (first compound 2 µM). The values for the relative viability in experiment [4] (first compound 6.325 µM) and in experiment [4] (first compound 20 µM) were 0.797 and 0.818, respectively.
As to NCI-H1755, the relative viability turned out to be 0.607 in experiment [1] (first compound 0.005 µM); 0.693 in experiment [1] (first compound 0.01581 µM); 0.589 in experiment [1] (first compound 0.05 µM); 0.461 in experiment [1] (first compound 0.1581 µM); 0.372 in experiment [1] (first compound 0.5 µM); 1.02 in experiment [2] (first compound 0.005 µM). Moreover, the relative viability in experiment [2] (first compound 0.01581 µM) worked out at 1.05; in experiment [2] (first compound 0.05 µM) it was 0.776; in experiment [2] (first compound 0.1581 µM), 0.429; in experiment [2] (first compound 0.5 µM), 0.215; in experiment [3] (first compound 0.2 µM), 1.06; in experiment [3] (first compound 0.6325 µM), 1.07. The relative viability came out at 1.04 in experiment [3] (first compound 2 µM); 0.818 in experiment [3] (first compound 6.325 µM); 0.939 in experiment [3] (first compound 20 µM); 0.931 in experiment [4] (first compound 0.2 µM); 0.959 in experiment [4] (first compound 0.6325 µM); 1.01 in experiment [4] (first compound 2 µM). The relative viability in experiment [4] (first compound 6.325 µM) turned out to be 0.817; in experiment [4] (first compound 20 µM), 0.928.
